Test results taken from patent US20060009358A1, “Synergistically acting herbicidal mixtures” (priority 2002, published 2006).

How the values were obtained:
Assay in all cases: Herbicidal action, post-emergence treatment, greenhouse (damage 0-100% vs untreated control)
Type in all cases: in vivo
Echinochloa crus-galli = conditions: Table 5, application rate 3.91 g/ha ai
Source text: (§1) The mixtures according to the invention were applied pre- or post-emergence (foliar treatment). The herbicidal compounds of component B and, if desired, of component C were applied in the formulation in which they are present as commercially available product.
(§2) The herbicidally active compounds of components A), B) and, if desired, C) were applied in succession or jointly, in the latter case in some cases as a tank mix and in some cases as a ready-mix, in the form of emulsions, aqueous solutions or-suspensions, the vehicle being water (300-400 l/ha). In the case of the field trials, application was effected with the aid of a mobile plot sprayer.
(§3) The test period extended over 3 to 8 weeks, and the stands were also observed at later points in time.
(§4) Damage by the herbicidal compositions was evaluated with reference to a scale of 0% to 100% in comparison with untreated control plots. 0 means no damage and 100 means complete destruction of the plants.
(§5) In these examples, the value E at which only an additive effect of the individual active ingredients is to be expected was calculated by the method of S. R. Colby (Calculating synergistic and antagonistic responses of herbicide combinations, Weeds 15, 20 pp (1967)).
(§6) This was done using the formula [formula] where • X=Percentage of the herbicidal action of component X) at an application rate of x; • Y=Percentage of the herbicidal action of component Y) at an application rate of y; • E=expected herbicidal action of component X)+Y) at rates of application x+y (in %).
(§7) If the value observed exceeds the value E calculated in accordance with Colby's formula, then synergism is present.

Abutilon theophrasti = system: Abutilon theophrasti
Source text: as §1, §2, §3, §4, §5, §6, §7

Galium aparine = system: Galium aparine
Source text: as §1, §2, §3, §4, §5, §6, §7

Setaria faberi = system: Setaria faberi
Source text: as §1, §2, §3, §4, §5, §6, §7

Brachiaria plantaginea = conditions: Table 8, application rate 125 g/ha ai
Source text: as §1, §2, §3, §4, §5, §6, §7

Pharbitis purpurea = conditions: Table 11, application rate 31.2 g/ha ai
Source text: as §1, §2, §3, §4, §5, §6, §7

Polygonum persicaria = system: Polygonum persicaria
Source text: as §1, §2, §3, §4, §5, §6, §7

[1] = Table 3, application rate 3.91 g/ha ai
[2] = Table 4, application rate 7.81 g/ha ai

Cc1ccn2nc(S(=O)(=O)Nc3c(F)cccc3F)nc2n1 [IIa, flumetsulam]
Echinochloa crus-galli Damage (Echinochloa crus-galli): 25% | Abutilon theophrasti Damage (Abutilon theophrasti; [1]): 60% | Galium aparine Damage (Galium aparine; [2]): 80%

Cc1c(C(=O)c2cnn(C)c2O)ccc(S(C)(=O)=O)c1C1=NOCC1 [Ia.29, 4-[2-methyl-3-(4,5-dihydroisoxazol-3-yl)-4-methylsulfonyl-benzoyl]-1-methyl-5-hydroxy-1H-pyrazole]
Abutilon theophrasti Damage (Abutilon theophrasti; [1]): 60% | Galium aparine Damage (Galium aparine; [2]): 70%

O=C(O)c1nc(Cl)ccc1Cl [IIb, clopyralid]
Setaria faberi Damage (Setaria faberi; Table 6, application rate 250 g/ha ai): 20% | Setaria faberi Damage (Setaria faberi; Table 7, application rate 125 g/ha ai): 20%

CCNc1nc(Cl)nc(NC(C)C)n1 [atrazine]
Brachiaria plantaginea Damage (Brachiaria plantaginea): 25% | Pharbitis purpurea Damage (Pharbitis purpurea): 60% | Abutilon theophrasti Damage (Abutilon theophrasti; Table 8, application rate 125 g/ha ai): 30% | Setaria faberi Damage (Setaria faberi; Table 11, application rate 31.2 g/ha ai): 30% | Polygonum persicaria Damage (Polygonum persicaria; Table 10, application rate 62.5 g/ha ai): 40% | Polygonum persicaria Damage (Polygonum persicaria; Table 12, application rate 31.2 g/ha ai): 30% | Galium aparine Damage (Galium aparine; Table 9, application rate 125 g/ha ai): 60%
